Patent US20210198248A1, “FUMARATE SALT OF 5-((5-METHYL-2-((3,4,5-[…])AMINO)PYRIMIDIN-4-YL)AMINO)-BENZO[D]OXAZOL-2(3H)-ONE” (ASTRAZENECA AB, priority 2018, published 2021)
Counter-ions that a name gives are not always drawn.

Experiments:
JAK = conditions: cell-based assay, WO 2010/085684 page 314; cited from earlier work
[1] = Dissolution measurements, μ-DISS Profiler, micronized material; format: physicochemical
Experimental: In general, 0.5 mg of the micronized material was added to the stirred dissolution media (20 mL 0.1 M acetate buffer, pH 4.5, 200 rpm, at 37° C.). The dissolution profiles were generated by measuring the UV absorbance at 280 nm wavelength. The material of interest was evaluated in triplicate.
The particle size of the materials was reduced by micronisation, as follows, using a 2″ Spiral Jet Mill or a 1″ MCOne fluid Jet Mill followed by subsequent particle size distribution (PSD) measurements.
Test substance was fed into the jet mill chamber, via a venturi feed system, by a vibratory feeder. Micronisation was achieved by particle collisions brought about by compressed gas (nitrogen) forced through angled nozzles in the jet mill chamber. Particles of different sizes develop different speeds and momentum and as the particle size is reduced the particles spiral towards the centre of the jet mill and exit via an exhaust into a collection bin. The process parameters that control the particle size, in addition to the inherent properties of the compound to be micronised, are the feed rate, grinding pressure and venturi pressure and these are summarised in Table 2 below.

increase in solubility compared to free base ([1]; at 50 minutes, 0.1 M acetate buffer pH 4.5, 37° C., micronized material) | aqueous solubility ([1]; general statement, compared to Compound (I) free base) | Structure (SMILES) | IC50 (JAK)
 |  | Cc1cnc(Nc2cc(C)c(C)c(C)c2)nc1Nc1ccc2oc(=O)[nH]c2c1 [Compound (I), 5-((5-methyl-2-((3,4,5-trimethylphenyl)-amino)pyrimidin-4-yl)amino)benzo[d]oxazol-2(3H)-one] | < 500 nM
~6 fold | high aqueous solubility | Cc1cnc(Nc2cc(C)c(C)c(C)c2)nc1Nc1ccc2oc(=O)[nH]c2c1 [hemi-fumarate salt, 5-((5-methyl-2-((3,4,5-trimethylphenyl)-amino)pyrimidin-4-yl)amino)benzo[d]oxazol-2(3H)-one hemi-fumarate Salt] | 
